Assay results taken from article PMC11078990, “Identification and characterization of small molecule inhibitors of the LINE-1 retrotransposon endonuclease” (Nature Communications, 2024).
Values joined by “and” are separate entries in the source; they are usually repeats but may differ in a detail not shown here. Equal values may be shown once. Read-outs that look alike come from different tables or passages of the source.

Experiments:
[1] = biological target: L1 EN (LINE-1 retrotransposon endonuclease domain) (Homo sapiens, UniProt O00370, N5T); assay: Fluorescent oligonucleotide EN nicking activity assay; format: biochemical; conditions: technical replicates 1-3, Fig. 2b source data
Chain of L1 EN (LINE-1 retrotransposon endonuclease domain) (O00370 1-239 N5T): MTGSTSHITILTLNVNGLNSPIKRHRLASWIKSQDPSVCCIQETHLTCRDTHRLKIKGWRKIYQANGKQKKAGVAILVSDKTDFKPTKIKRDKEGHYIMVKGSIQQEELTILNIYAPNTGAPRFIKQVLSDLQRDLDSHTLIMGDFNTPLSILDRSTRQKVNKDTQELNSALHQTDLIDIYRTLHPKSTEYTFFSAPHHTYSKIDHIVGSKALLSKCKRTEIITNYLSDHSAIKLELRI

APE1 = biological target: T1, APE1 (Homo sapiens, UniProt P27695); assay: APE1 fluorescent oligonucleotide activity assay (abasic site substrate); format: biochemical; conditions: for Percent APE1 activity, average / Percent APE1 activity, replicates: 250 µM, Supplementary Fig. 6b; for Percent APE1 activity, average: n=3; for Percent APE1 activity, replicates: replicates 1-3; for APE1 percent activity, Replicate 1 / APE1 percent activity, Replicate 2 / APE1 percent activity, Replicate 3 / APE1 percent activity, average: compound at 25 μM; for APE1 percent activity, average: average of 3 replicates; for activity at 25 µM: inhibitors at 25 μM, relative to 0 μM inhibitor control, mean ± s.d., 3 independent experiments, read-out: APE1 activity (%)
T1 construct: purchased New England Biolabs (NEB) M0282S

[2] = tested on: substrate oligonucleotide used in the EN activity assay; format: binding; design: key to Binding Detected? (Y/N): Binding Detected? (Y/N); Binding Detected? (Y/N)
L1 retrotransposition = assay: HeLa dual-luciferase L1 retrotransposition assay; format: cell-based, human; conditions: for L1 retrotransposition, average: average of 4 replicates, Figure 4b; for Luciferase (retrotransposition), replicates: Replicates 1-4; for Effect on L1 retrotransposition: HeLa cells
HeLa Tet-On cells = conditions: human, 48 h
[3] = [Inhibitor] 100 μM, read-out: EN activity, percent of no inhibitor control
[4] = [Inhibitor] 500 μM, read-out: EN activity, percent of no inhibitor control
[5] = [Inhibitor] 1000 μM, read-out: EN activity, percent of no inhibitor control
[6] = Figure 4a Graph 4, 25μM, 0μM average 3.426
[7] = Figure 4a Graph 5, 50μM, 0μM average 4.537

Structure (SMILES)	EN activity, percent of no inhibitor control ([1]; [Inhibitor] 5 μM, 5 µM)	EN activity, percent of no inhibitor control ([1]; [Inhibitor] 25 μM, 25 µM)	EN activity, percent of no inhibitor control ([1]; [Inhibitor] 100 μM, 100 µM)	remaining activity at 100 µM [1, 3] [%]	EN activity, percent of no inhibitor control ([1]; [Inhibitor] 250 μM, 250 µM)	EN activity, percent of no inhibitor control ([1]; [Inhibitor] 500 μM, 500 µM)	remaining activity at 500 µM [1, 4] [%]	EN activity, percent of no inhibitor control ([1]; [Inhibitor] 1000 μM, 1000 µM)	remaining activity at 1000 µM [1, 5] [%]	EN activity, percent of no inhibitor control ([1]; [Inhibitor] 2500 μM, 2500 µM)	Percent APE1 activity, average (APE1) [%]	Percent APE1 activity, replicates (APE1)	APE1 percent activity, Replicate 1 (APE1) [%]	APE1 percent activity, Replicate 2 (APE1) [%]	APE1 percent activity, Replicate 3 (APE1) [%]	APE1 percent activity, average (APE1) [%]	activity at 25 µM (APE1) [%]	Binding Detected? (Y/N) [2]	Effect on L1 retrotransposition (L1 retrotransposition)	further results
COc1ccc(OC)c(NS(=O)(=O)c2ccc(NS(=O)(=O)c3cccc([N+](=O)[O-])c3)cc2)c1 [AD36]	91.0252% and 84.1869%	101.21% and 100.403%	79.4211% and 84.6024%	96.7	66.0801% and 55.4717%	50.9528% and 49.6683%	60.1	29.1344% and 22.6241%	19.6	18.2597% and 42.0507% and 24.6475%	108.9	115.202% and 104.299% and 107.269%	121.786	104.892	127.866	118.181	118 ± 11.9	N	some activity in the retrotransposition assay	remaining activity at 5 µM ([1]; [Inhibitor] 5 μM, read-out: EN activity, percent of no inhibitor control): 89.6%; remaining activity at 25 µM ([1]; [Inhibitor] 25 μM, read-out: EN activity, percent of no inhibitor control): 82%; remaining activity at 250 µM ([1]; [Inhibitor] 250 μM, read-out: EN activity, percent of no inhibitor control): 47.9%; EN activity, percent of no inhibitor control ([1]; [Inhibitor] 750 μM, 750 µM): 44.0742% and 35.8636%; remaining activity at 750 µM ([1]; [Inhibitor] 750 μM, read-out: EN activity, percent of no inhibitor control): 31.6%; EN activity, percent of no inhibitor control ([1]; [Inhibitor] 1750 μM, 1750 µM): 17.5242% and 11.215% and 25.1816%; L1 retrotransposition, average (L1 retrotransposition; 0.5 μM inhibitor): 4.647; L1 retrotransposition, average (L1 retrotransposition; 1 μM inhibitor): 4.699; L1 retrotransposition, average (L1 retrotransposition; 5 μM inhibitor): 4.066; L1 retrotransposition, average (L1 retrotransposition; 10 μM inhibitor): 4.169; L1 retrotransposition, average (L1 retrotransposition; 25 μM inhibitor): 2.81; L1 retrotransposition, average (L1 retrotransposition; 50 μM inhibitor): 1.253; Luciferase (retrotransposition), average (L1 retrotransposition; [6]): 1.266; Luciferase (retrotransposition), replicates (L1 retrotransposition; [6]): 1.765 and 0.7621 and 1.278 and 1.259; PrestoBlue (viability), average (HeLa Tet-On cells; 25 μM): 15.2
O=C(Cn1nc(-c2ccc(Br)cc2)ccc1=O)NC[C@H]1CC[C@H](C(=O)O)CC1 [AD43]	82.7533% and 93.1928% and 121.814%	125.36% and 146.969% and 130.066%	119.496% and 103.054%	106	70.4269% and 99.2352% and 82.7621%	75.3754% and 92.6354%	82.7	36.4624% and 21.4688%	31.2	-1.238% and -2.463% and -2.08%	116.3	119.605% and 105.469% and 123.903%	116.306	108.363	123.152	115.94	116 ± 7.4	N	some activity in the retrotransposition assay	EN activity, percent of no inhibitor control ([1]; [Inhibitor] 50 μM, 50 µM): 105.857% and 111.128%; remaining activity at 50 µM ([1]; [Inhibitor] 50 μM, read-out: EN activity, percent of no inhibitor control): 117%; Luciferase (retrotransposition), average (L1 retrotransposition; [7]): 2.141; Luciferase (retrotransposition), replicates (L1 retrotransposition; [7]): 2.066 and 2.337 and 2.1059 and 2.055; PrestoBlue (viability), average (HeLa Tet-On cells; 50 μM): 6.621
